Here are results for 2 substances from US20190274937A1, “MICROBIOME-SAFE COSMETIC CLEANING COMPOSITIONS” (Yun NV, priority 2016, published 2019).

One test relates to lactobacillus. The test can be described thus: More detailed screening of the products for ingredients responsible for growth retardation (data not shown). It counts as cell-based. An excerpt: A more detailed screening of the products (data not shown) led to a few common ingredients found in most shower cosmetics that can be held responsible for the growth retardation in FIG. 1.0. […] As strong and fast working preservatives; phenoxyethanol, parabens, bronopol, sulphites/sulphates, benzylalcohol and others were identified. Most allergens in perfume can also be identified as being harmful for bacteria.

The nature of another test: Spread plating. It counts as cell-based. The note with it: surfactants of negative control P3. As to the method: The negative control (P3) has no growth after incubation in MRS. It contains the anionic Sodium Laureth sulphate (14% final) and cocamidopropyl betaine, some of the most commonly used surfactants in present-day soaps.

On to Sodium laureth sulphate, for which the “effect on bacteria / the present lactobacillus” value in the test on lactobacillus is recorded as “very strong bactericidal effect”. Also, the bactericidal effect entry in “Spread plating” is reported as “bactericidal effect”.

In the case of cocamidopropyl betaine, the “effect on bacteria / the present lactobacillus” value in the test with lactobacillus is listed as “big negative influence”. In addition, the bactericidal effect entry in “Spread plating” was “bactericidal effect”.
